Measured values from article PMC12735945, “Synthetic Linear Lipopeptides and Lipopeptoids Induce Apoptosis and Oxidative Stress: In Vitro Cytotoxicity and SAR Evaluation Against Cancer Cell Lines” (Pharmaceuticals, 2025).
Like-named read-outs stand apart in the source and are kept apart here. Starred links: 1 amine or outer side, 2 acyl side, 3 side chain; linkers in the order of their positions; H or OH if unused. Positions of bridges follow the written chain, without caps; N, C: chain ends. Non-standard residues stand in square brackets, D forms with d. Residues, ends and D or L forms follow the SMILES beside them. *: point of attachment. X1 = CC(C)CCCCCCCCC[C@H](CC(=O)[*:1])O[*:2]; Heptadecanoyl = CCCCCCCCCCCCCCCCC(=O)*; Stearoyl = CCCCCCCCCCCCCCCCCC(=O)*; Myristoyl = CCCCCCCCCCCCCC(=O)*; Boc = CC(C)(C)OC(=O)*; Nlys = NCCCCNCC(=O)O

How the values were obtained:
[1] = tested on: PC3 (human prostate cancer) cells; type: cell-based; details: 72 h
Description: (§1) The MTT and CV assays were employed for initial cytotoxicity screening and determination of half-maximal inhibitory concentrations (IC50), as described previously. Cells were seeded in 96-well plates and incubated for 24 h prior to treatment. B16F10, HT-29, HeLa, and NIH3T3 cells were seeded at a density of 2000 cells per well, while PC3 cells were seeded at 6000 cells per well due to their slower proliferation rate. For fast screening, cancer cells were treated with two concentrations of each LLP (0.1 µM and 10 µM) for 72 h in triplicate, with four replicates in each experiment. […] Digitonin was used as a positive control in all assays. Following treatment, absorbance was measured using a microplate reader (SpectraMax, Molecular Devices, San Jose, CA, USA) at 540 nm, with a reference wavelength of 670 nm. Cell viability was calculated as a percentage of untreated control wells.

[2] = tested on: HT-29 (human colon adenocarcinoma) cells; type: cell-based; details: 72 h
Description: as §1

[3] = tested on: HeLa (human cervical adenocarcinoma) cells; type: cell-based; details: 72 h
Description: as §1

[4] = tested on: HeLa (human cervical adenocarcinoma) cells; type: cell-based; details: 72 h; remark: listed apart in the source
Description: as §1

[5] = tested on: HT-29 (human colon adenocarcinoma) cells; type: cell-based; details: 72 h; remark: listed apart in the source
Description: as §1

[6] = tested on: B16F10 (mouse skin melanoma) cells; type: cell-based; details: 72 h
Description: as §1

[7] = tested on: PC3 (human prostate cancer) cells; type: cell-based; details: 72 h; remark: listed apart in the source
Description: as §1

caspases in B16F10 cells = assay: ApoStat caspase detection assay; type: cell-based, mouse; details: B16F10, IC50 concentration, 72 h
Description: B16F10 cells were seeded in 6-well plates at a density of 1 × 10^5 cells per well and treated for 72 h with IC50 concentrations of selected active LLPs. Post-treatment, cells were harvested and washed with PBS. Cells were then stained with 100 μL of working ApoStat solution, prepared by diluting ApoStat reagent (FITC-VAD-FMK) in PBS containing 5% FCS (99 μL of PBS 5% FCS + 1 μL ApoStat per sample). The staining was performed for 30 min at 37 °C in the dark. Following incubation, cells were washed to remove unbound reagents and analyzed by flow cytometry using a FACSAria III system (BD Biosciences). The fluorescence intensity of FITC was measured to assess caspase production, with increased fluorescence indicating elevated caspase activity.

B16F10 cells [8] = assay: CFSE-based cell proliferation assay; design: species or system mouse; details: B16F10, IC50 concentration, 72 h
Description: B16F10 cells were stained with 1 µM carboxyfluorescein succinimidyl ester (CFSE) for 10 min at 37 °C, followed by treatment with compounds 17, 53, or 57 at IC50 concentrations for 72 h. After incubation, cells were washed, trypsinized, and analyzed by flow cytometry to assess cell division based on CFSE fluorescence intensity.

B16F10 cells [9] = assay: ROS/RNS production (DHR staining, flow cytometry); type: cell-based, mouse; details: B16F10, IC50 concentration, 72 h, versus untreated control
Description: (§2) To assess intracellular ROS/RNS levels, B16F10 cells were first stained with 1 µM DHR for 10 min at 37 °C. Following staining, cells were treated with LLPs 17, 53 or 58 at their IC50 concentrations for 72 h. After treatment, cells were trypsinized, washed with PBS, and analyzed by flow cytometry to quantify DHR fluorescence, indicative of ROS/RNS production. For NO detection, B16F10 cells were treated under identical conditions using the same LLP concentrations. After 72 h, cells were incubated with 5 µM DAF-FM diacetate in RPMI 1640 supplemented with 10% FCS for 1 h at 37 °C. The stain was then deactivated by incubation for 15 min with a serum-free medium. Finally, cells were detached, washed with PBS, and subjected to flow cytometric analysis to assess intracellular NO levels.

B16F10 cells [10] = assay: Apoptosis by Annexin V-FITC/PI staining; type: cell-based, mouse; details: B16F10, IC50 concentration, 72 h
Description: B16F10 melanoma cells were seeded in 6-well plates at a density of 1 × 10^5 cells/well and incubated overnight to allow for cell adherence. […] Following treatment, both floating and adherent cells were harvested and washed with PBS. The cells were then resuspended in 100 μL of Annexin V binding buffer containing 5 μL of Annexin V-FITC and 2 μL of PI per sample. Staining was performed for 15 min at 37 °C in the dark. After staining, cells were washed with PBS and analyzed using a BD FACSAria III flow cytometer (BD Biosciences) to quantify the percentages of apoptotic cells.

[11] = tested on: B16F10 (mouse skin melanoma) cells; type: cell-based; details: 72 h; remark: listed apart in the source
Description: as §1

B16F10 cells [12] = assay: Cell cycle analysis (DAPI staining, flow cytometry); type: cell-based, mouse; details: 72 h
Description: B16F10 cells were seeded overnight in 6-well plates at a density of 1 × 10^5 cells per well and treated for 72 h with selected active LLPs either at the IC50 or 2 × IC50 concentration. Following treatment, both floating and adherent cells were collected, washed with PBS, and fixed in 70% ethanol at 4 °C overnight. Fixed cells were stained with DAPI staining solution (1 µg/mL) for 30 min at 37 °C in the dark, followed by PBS washing to remove excess dye. Flow cytometric analysis was performed using a FACSAria III instrument (BD Biosciences, Eysins, Switzerland). Histograms of cell counts versus fluorescence intensity were generated and cell cycle distribution was determined based on mean fluorescence intensity values.

B16F10 cells [13] = assay: NO production (DAF-FM staining, flow cytometry); type: cell-based, mouse; details: B16F10, IC50 concentration, 72 h
Description: as §2

[14] = tested on: B16F10 (mouse skin melanoma) cells; details: CV assay, 72 h; mean ± SD; cited from earlier work
Description: Table 1 IC50 value (µM) for cytotoxic LLPs (72 h, CV assay). Data represent mean ± SD from three independent biological experiments, each performed with eight technical replicates per concentration. | column: B16F10

[15] = tested on: HeLa (human cervical adenocarcinoma) cells; details: CV assay, 72 h; mean ± SD; cited from earlier work
Description: Table 1 IC50 value (µM) for cytotoxic LLPs (72 h, CV assay). Data represent mean ± SD from three independent biological experiments, each performed with eight technical replicates per concentration. | column: HeLa

[16] = tested on: NIH3T3 mouse embryonic fibroblasts; type: cell-based; details: 72 h
Description: as §1

[17] = MTT assay, mean ± SD of three independent biological experiments, read-out: IC50 B16F10
[18] = B16F10, double IC50 concentration
[19] = MTT assay, mean ± SD of three independent biological experiments, read-out: IC50 HeLa

SMILES: CCCCCCCCCCCCCCCC(=O)N(CCCCCCNC(=O)OC(C)(C)C)CC(=O)NCC(=O)N(CCCCCCNC(=O)OC(C)(C)C)CC(=O)NCC(=O)OC [Compound 3]
- IC50 [1]: 6.1 ± 0.2 µM
- IC50 [2]: 6.2 ± 0.2 µM
- IC50 [3]: 6.6 ± 0.3 µM
- IC50 [4]: 6.4 ± 0.9 µM
- IC50 [5]: 6.5 ± 0.6 µM
- IC50 [6, 17]: 6.1 ± 0.1 µM
- IC50 [7]: 5.9 ± 0.1 µM

SMILES: CCCCCCCCCCCCCC(=O)N(CCNC(=O)OC(C)(C)C)CC(=O)NCC(=O)N(CCNC(=O)OC(C)(C)C)CC(=O)NCC(=O)OC [Compound 17]
- IC50 [1]: 4.1 ± 0.6 µM
- caspase activation (ApoStat fluorescence) (caspases in B16F10 cells): gradual enhancement in the fluorescence signal
- cell division profile (CFSE) (B16F10 cells [8]): notably reduced the proportion of cells undergoing successive divisions
- ROS/RNS production (B16F10 cells [9]): moderate ROS/RNS generation
- proportion of apoptotic cells (B16F10 cells [10]): approximately 15%
- IC50 [11]: 5.6 ± 0.4 µM
- cells in the sub-G1 phase (B16F10 cells [12]; B16F10, IC50 concentration): approximately 20%
- cells in the sub-G1 phase (B16F10 cells [12]; [18]): 50–60%
- IC50 [2]: 4.1 ± 0.8 µM
- IC50 [4, 19]: 5.6 ± 0.3 µM
- IC50 [5]: 4 ± 0.6 µM
- IC50 [6]: 5.7 ± 0.3 µM
- IC50 [7]: 4 ± 0.3 µM
- NO production (B16F10 cells [13]): increased NO production

SMILES: CCCCCCCCCCCCCCCCC(=O)N(CCCCNC(=O)OC(C)(C)C)CC(=O)NCC(=O)N(CCCCNC(=O)OC(C)(C)C)CC(=O)NCC(=O)OC [Compound 45] (Heptadecanoyl-[Nlys](Boc)G[Nlys](Boc)G-OMe)
- IC50 [2]: 7.8 ± 0.9 µM
- IC50 [3]: 7.9 ± 0.6 µM
- IC50 [4]: 8 ± 0.5 µM
- IC50 [5]: 7.5 ± 0.1 µM
- IC50 [6, 17]: 8 ± 0.2 µM

SMILES: CCCCCCCCCCCCCCCCCC(=O)N(CCCCNC(=O)OC(C)(C)C)CC(=O)NCC(=O)N(CCCCNC(=O)OC(C)(C)C)CC(=O)NCC(=O)OC [Compound 46] (Stearoyl-[Nlys](Boc)G[Nlys](Boc)G-OMe)
- IC50 [11]: 8 ± 0.9 µM
- IC50 [3]: 8 ± 0.4 µM
- IC50 [4]: 8.2 ± 0.3 µM
- IC50 [6]: 8.1 ± 0.1 µM

SMILES: CCCCCCCCCCCCCC(=O)N(CCCCNC(=O)OC(C)(C)C)CC(=O)NCC(=O)N(CCCCNC(=O)OC(C)(C)C)CC(=O)NCC(=O)OC [Compound 47] (Myristoyl-[Nlys](Boc)G[Nlys](Boc)G-OMe)
- IC50 [4, 19]: 12.3 ± 0.8 µM

SMILES: CCCCCCCCCCCCCCCC(=O)N(CCc1ccc(O)cc1)CC(=O)NCC(=O)OC [Compound 53]
- caspase activation (ApoStat fluorescence) (caspases in B16F10 cells): gradual enhancement in the fluorescence signal
- cell division profile (CFSE) (B16F10 cells [8]): notably reduced the proportion of cells undergoing successive divisions
- ROS/RNS production (B16F10 cells [9]): only slightly enhanced
- proportion of apoptotic cells (B16F10 cells [10]): approximately 15%
- IC50 [11]: 7.7 ± 0.3 µM
- cells in the sub-G1 phase (B16F10 cells [12]; B16F10, IC50 concentration): approximately 20%
- cells in the sub-G1 phase (B16F10 cells [12]; [18]): 50–60%
- IC50 [6]: 8 ± 0.2 µM
- NO production (B16F10 cells [13]): only a slight increase

SMILES: CCCCCCCCCCCCCCCC(=O)N(CCCCN=[N+]=[N-])CC(=O)NCC(=O)N(CCCCN=[N+]=[N-])CC(=O)NCC(=O)OC [Compound 55]
- IC50 [4, 19]: 15.4 ± 0.4 µM

SMILES: CCCCCCCCCCCCCCCCCCC(=O)N(CCCCN=[N+]=[N-])CC(=O)NCC(=O)N(CCCCN=[N+]=[N-])CC(=O)NCC(=O)OC [Compound 58]
- caspase activation (ApoStat fluorescence) (caspases in B16F10 cells): clearer caspase activation was detected
- cell division profile (CFSE) (B16F10 cells [8]): notably reduced the proportion of cells undergoing successive divisions
- ROS/RNS production (B16F10 cells [9]): marked increase
- proportion of apoptotic cells (B16F10 cells [10]): approximately 15%
- IC50 [11]: 7.4 ± 0.1 µM
- cells in the sub-G1 phase (B16F10 cells [12]; B16F10, IC50 concentration): approximately 20%
- cells in the sub-G1 phase (B16F10 cells [12]; [18]): 50–60%
- IC50 [2]: 9.1 ± 0.2 µM
- IC50 [3]: 7.7 ± 0.2 µM
- IC50 [4]: 7.8 ± 0.3 µM
- IC50 [5]: 8.7 ± 0.3 µM
- IC50 [6]: 7.5 ± 0.2 µM
- NO production (B16F10 cells [13]): increased NO production

SMILES: CCCCCCCCCCCCCCCCCCCC(=O)N(CCCCN=[N+]=[N-])CC(=O)NCC(=O)N(CCCCN=[N+]=[N-])CC(=O)NCC(=O)OC [Compound 59]
- IC50 [11]: 11.1 ± 1.2 µM
- IC50 [6]: 11.5 ± 1.3 µM

SMILES: CC(C)CCCCCCCCC[C@@H]1CC(=O)N[C@@H](CCC(=O)O)C(=O)N[C@@H](CC(C)C)C(=O)N[C@H](CC(C)C)C(=O)N[C@@H](C(C)C)C(=O)N[C@@H](CC(=O)O)C(=O)N[C@H](CC(C)C)C(=O)N[C@@H](CC(C)C)C(=O)O1 [Surfactin, surfactin, reference compound] (EL[dL]VD[dL]L; linker N-C via X1 (inferred))
- IC50 [14]: 40.4 ± 0.3 µM
- IC50 [15]: 76.2 ± 1.6 µM
- NIH3T3 cell viability [16]: approximately 25%
- IC50 [4]: 64.9 ± 0.8 µM
- IC50 [6]: 50.3 ± 0.6 µM
